± gives the expanded uncertainty stated by the source.
Assay: excess molar enthalpy (molar enthalpy of mixing); xn = mol fraction of the nth substance listed
Conditions: 298.15 K, 101 kPa, Liquid, Flow calorimetry

excess molar enthalpy (x2 = 0.2499): -0.00906 ± 0.000263 kcal/mol
excess molar enthalpy (x2 = 0.5): -0.0108 ± 0.000263 kcal/mol
excess molar enthalpy (x2 = 0.75): -0.00837 ± 0.000239 kcal/mol
Structure (SMILES): CC(C)O [propan-2-ol] + CCCO

Source: the NIST ThermoML archive (doi:10.1016/j.tca.2005.06.011)
